Assays:
[1] = target: T1, Full length WRN protein (aa 2-1432) (Homo sapiens (Human), UniProt Q14191); assay: WRN ATPase ADP-Glo biochemical assay, Assay Format A (10 μM ATP); settings: 0.25 nM WRN, 100 nM C6.18 ssDNA, 30 min preincubation, read-out: ATPase ADPGlo AC50 (uM)- Assay Format A
Method in brief: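 ADP-Glo luminescence measured hydrolysis of ATP by purified, baculovirus-expressed N-terminally tagged full-length WRN. Enzyme (0.5 nM) was preincubated 30 min with compound, then 200 nM ssDNA C6.18 plus 20 μM ATP were added (pre-mix levels) for 30 min at RT. IC50s come from four-parameter fits, geometric mean of at least two trials.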

HT29 cells = assay: HT29 (MSS) 7 day viability, CellTiter Glo; assay type: cell-based; settings: Homo sapiens, HT-29, 168 h, 7 days, read-out: HT29 (MSS) Viability 7 Day CTGAbs AC50
Method in brief: (§1)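 10 mM DMSO stocks serially diluted 3-fold, 10 steps; cells added (HCT116 50/well, HT29 500/well); 7 d, 37 °C, 5% CO2; CellTiter Glo 20 min RT; luminescence.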

HCT116 cells = assay: HCT116 (MSI) 7 day viability, CellTiter Glo; assay type: cell-based; settings: Homo sapiens, HCT-116, 168 h, 7 days, read-out: HCT116 (MSI) Viability 7 Day Abs AC50
Method in brief: as §1

[2] = target: T1, Full length WRN protein (aa 2-1432); assay: WRN ATPase ADP-Glo biochemical assay, Assay Format B (100 μM ATP); settings: 0.25 nM WRN, 100 nM C6.18 ssDNA, 60 min preincubation, read-out: ATPase ADPGlo AC50 (uM)- Assay Format B

T1 sequence (Q14191 2-1432): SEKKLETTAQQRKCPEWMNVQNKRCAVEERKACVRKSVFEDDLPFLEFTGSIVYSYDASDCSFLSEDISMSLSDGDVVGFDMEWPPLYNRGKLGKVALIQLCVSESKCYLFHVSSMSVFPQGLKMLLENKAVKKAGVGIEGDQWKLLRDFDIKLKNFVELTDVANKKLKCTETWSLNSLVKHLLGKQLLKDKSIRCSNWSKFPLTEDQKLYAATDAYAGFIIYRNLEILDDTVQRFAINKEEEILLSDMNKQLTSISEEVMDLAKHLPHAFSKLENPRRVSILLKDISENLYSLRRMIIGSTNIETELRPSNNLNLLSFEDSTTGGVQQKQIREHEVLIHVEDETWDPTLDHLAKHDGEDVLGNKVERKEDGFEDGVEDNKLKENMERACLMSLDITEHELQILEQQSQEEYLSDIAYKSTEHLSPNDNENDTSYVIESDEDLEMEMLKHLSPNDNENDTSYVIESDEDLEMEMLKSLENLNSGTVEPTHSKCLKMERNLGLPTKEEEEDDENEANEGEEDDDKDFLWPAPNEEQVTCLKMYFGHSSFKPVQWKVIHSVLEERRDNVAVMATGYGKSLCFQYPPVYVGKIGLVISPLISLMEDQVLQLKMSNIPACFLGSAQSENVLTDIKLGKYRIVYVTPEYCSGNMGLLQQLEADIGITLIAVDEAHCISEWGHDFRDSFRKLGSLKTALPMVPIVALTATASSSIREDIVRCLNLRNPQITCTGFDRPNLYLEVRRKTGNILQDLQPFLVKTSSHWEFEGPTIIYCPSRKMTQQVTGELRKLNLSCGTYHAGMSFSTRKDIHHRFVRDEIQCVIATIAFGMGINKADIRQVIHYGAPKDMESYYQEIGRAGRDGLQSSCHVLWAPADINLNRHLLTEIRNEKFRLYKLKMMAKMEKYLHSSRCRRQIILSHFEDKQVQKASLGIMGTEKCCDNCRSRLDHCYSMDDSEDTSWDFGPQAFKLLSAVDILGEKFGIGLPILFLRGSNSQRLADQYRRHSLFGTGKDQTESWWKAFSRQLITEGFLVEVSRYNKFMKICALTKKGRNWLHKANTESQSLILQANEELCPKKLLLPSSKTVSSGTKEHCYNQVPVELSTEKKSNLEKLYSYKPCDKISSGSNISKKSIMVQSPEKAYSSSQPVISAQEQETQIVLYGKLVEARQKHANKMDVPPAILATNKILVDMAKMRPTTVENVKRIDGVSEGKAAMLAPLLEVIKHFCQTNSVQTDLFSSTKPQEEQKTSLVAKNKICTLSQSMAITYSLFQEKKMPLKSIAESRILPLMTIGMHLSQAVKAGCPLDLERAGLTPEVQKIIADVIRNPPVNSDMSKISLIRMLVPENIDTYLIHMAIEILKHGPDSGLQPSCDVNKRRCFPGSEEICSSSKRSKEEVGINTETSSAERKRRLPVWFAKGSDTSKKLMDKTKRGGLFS

Row | SMILES | AC50 [1] [µM] | AC50 [2] [µM] | AC50 (HT29 cells) [nM] | AC50 (HCT116 cells) [nM]
1 | C=CC(=O)N1CCc2nn(-c3ccc(C45CC(C4)C5)c(F)c3)c3c2C(C1)N(C(=O)c1ccc(Br)c2[nH]cnc12)CC3 (stereo not shown) [Compound 84, 1-(2-(4-(bicyclo[1.1.1]pentan-1-yl)-3-fluorophenyl)-5-(7-bromo-1H-benzo[d]imidazole-4-carbonyl)-2,3,4,5,5a,6,8,9-octahydro-7H-1,2,5,7-tetraazabenzo[cd]azulen-7-yl)prop-2-en-1-one] | 0.0015 to 0.005 | 0.015 to 0.055 | > 3000 | 1 to 100
2 | C=CC(=O)N1CCc2nn(-c3ccc(C(C)C)cc3)c3c2C(C1)N(C(=O)c1ccc(C(F)(F)F)nc1)CC3 (stereo not shown) [Compound 13, 1-(2-(4-isopropylphenyl)-5-(6-(trifluoromethyl)nicotinoyl)-2,3,4,5,5a,6,8,9-octahydro-7H-1,2,5,7-tetraazabenzo[cd]azulen-7-yl)prop-2-en-1-one] | 0.0015 to 0.005 | 0.015 to 0.055 | > 3000 | 100 to 250
3 | C=CC(=O)N1CCc2nc(-c3ccc(C4CCC4)cc3)n3c2C(C1)N(C(=O)c1cnc(C(F)(F)F)c(O)c1)CC3 (stereo not shown) [Compound 86, 1-(2-(4-cyclobutylphenyl)-5-(5-hydroxy-6-(trifluoromethyl)nicotinoyl)-4,5,5a,6,8,9-hexahydro-1,2a,5,7-tetraazabenzo[cd]azulen-7(3H)-yl)prop-2-en-1-one] | < 0.0015 | 0.015 to 0.055 | > 3000 | 250 to 500
4 | C=CC(=O)N1CCc2nn(-c3ccc(C4CC4)cc3)c3c2C(C1)N(C(=O)c1c(N)cc(C(F)(F)F)nc1N)CC3 (stereo not shown) [Compound 186, 1-(2-(4-cyclopropylphenyl)-5-(2,4-diamino-6-(trifluoromethyl)nicotinoyl)-2,3,4,5,5a,6,8,9-octahydro-7H-1,2,5,7-tetraazabenzo[cd]azulen-7-yl)prop-2-en-1-one] | < 0.0015 | 0.005 to 0.015 | > 3000 | 1 to 100
5 | C=CC(=O)N1CCc2nn(-c3ccc(C(C)C)cc3)c3c2C(C1)N(C(=O)c1ncc(Br)c2[nH]cnc12)CC3 (stereo not shown) [Compound 10, 1-(5-(7-bromo-1H-imidazo[4,5-c]pyridine-4-carbonyl)-2-(4-isopropylphenyl)-2,3,4,5,5a,6,8,9-octahydro-7H-1,2,5,7-tetraazabenzo[cd]azulen-7-yl)prop-2-en-1-one] | < 0.0015 | 0.015 to 0.055 | > 3000 | 1 to 100
6 | C=CC(=O)N1CC(O)c2nn(-c3ccc(C4CCC4)cc3)c3c2C(C1)N(C(=O)c1ccc(Br)c2[nH]c(C(F)F)nc12)CC3 (stereo not shown) [Compound 160, 1-(5-(7-bromo-2-(difluoromethyl)-1H-benzo[d]imidazole-4-carbonyl)-2-(4-cyclobutylphenyl)-9-hydroxy-2,3,4,5,5a,6,8,9-octahydro-7H-1,2,5,7-tetraazabenzo[cd]azulen-7-yl)prop-2-en-1-one] | < 0.0015 | 0.0015 to 0.005 | > 3000 | 1 to 100
7 | Nc1cc(C(F)(F)F)ncc1C(=O)N1CCc2c3c(nn2-c2ccc(C4CCC4)cc2)CCN(C(=O)/C=C\Cl)CC31 (stereo not shown) [Compound 243, 1-(5-(4-amino-6-(trifluoromethyl)nicotinoyl)-2-(4-cyclobutylphenyl)-2,3,4,5,5a,6,8,9-octahydro-7H-1,2,5,7-tetraazabenzo[cd]azulen-7-yl)-3-chloroprop-2-en-1-one] | 0.0015 to 0.005 | 0.015 to 0.055 | 1000 to 3000 | 1 to 100
8 | C=CC(=O)N1CCc2nn(-c3ccc(C4CC4)cc3)c3c2C(C1)N(C(=O)c1ccc(Br)nc1C)CC3 (stereo not shown) [Compound 114, 1-(5-(6-bromo-2-methylnicotinoyl)-2-(4-cyclopropylphenyl)-2,3,4,5,5a,6,8,9-octahydro-7H-1,2,5,7-tetraazabenzo[cd]azulen-7-yl)prop-2-en-1-one] | 0.005 to 0.015 | > 0.055 | > 3000 | 250 to 500
9 | C=CC(=O)N1CCc2nn(-c3ccc(C4CC4)cc3)c3c2C(C1)N(C(=O)c1ccc(C#N)c2[nH]cnc12)CC3 (stereo not shown) [Compound 18, 4-(7-acryloyl-2-(4-cyclopropylphenyl)-3,4,5,5a,6,7,8,9-octahydro-2H-1,2,5,7-tetraazabenzo[cd]azulene-5-carbonyl)-1H-benzo[d]imidazole-7-carbonitrile] | 0.0015 to 0.005 | 0.015 to 0.055 | > 3000 | 1 to 100

Further lines, with some results ahead:

Row | AC50 [1] [µM] | AC50 [2] [µM] | SMILES | AC50 (HT29 cells) [nM] | AC50 (HCT116 cells) [nM]
10 | 0.0015 to 0.005 | > 0.055 | C=CC(=O)N1CCc2nn(-c3ccc(C4CCC4)cc3O)c3c2C(C1)N(C(=O)c1cnc(Br)c(OC(F)(F)F)c1)CC3 (stereo not shown) [Compound 62, 1-(5-(6-bromo-5-(trifluoromethoxy)nicotinoyl)-2-(4-cyclobutyl-2-hydroxyphenyl)-2,3,4,5,5a,6,8,9-octahydro-7H-1,2,5,7-tetraazabenzo[cd]azulen-7-yl)prop-2-en-1-one] | > 3000 | 100 to 250
11 | < 0.0015 | 0.005 to 0.015 | C=CC(=O)N1CCc2nn(-c3ccc(C4CCC4)cc3O)c3c2C(C1)N(C(=O)c1ccc(OC(F)F)nc1)CC3 (stereo not shown) [Compound 74, 1-(2-(4-cyclobutyl-2-hydroxyphenyl)-5-(6-(difluoromethoxy)nicotinoyl)-2,3,4,5,5a,6,8,9-octahydro-7H-1,2,5,7-tetraazabenzo[cd]azulen-7-yl)prop-2-en-1-one] | > 3000 | 1 to 100
12 | < 0.0015 | 0.005 to 0.015 | C=CC(=O)N1CCc2nn(-c3ccc(C4CC4)cc3O)c3c2C(C1)N(C(=O)c1ccc(Br)c2[nH]cnc12)CC3 (stereo not shown) [Compound 5, 1-(5-(7-bromo-1H-benzo[d]imidazole-4-carbonyl)-2-(4-cyclopropyl-2-hydroxyphenyl)-2,3,4,5,5a,6,8,9-octahydro-7H-1,2,5,7-tetraazabenzo[cd]azulen-7-yl)prop-2-en-1-one] | > 3000 | 1 to 100
13 | < 0.0015 | 0.005 to 0.015 | C=CC(=O)N1CCc2nn(-c3ccc(C4CCC4)cc3)c3c2C(C1)N(C(=O)c1cnc(C(F)(F)F)nc1N)CC3 (stereo not shown) [Compound 161, 1-(5-(4-amino-2-(trifluoromethyl)pyrimidine-5-carbonyl)-2-(4-cyclobutylphenyl)-2,3,4,5,5a,6,8,9-octahydro-7H-1,2,5,7-tetraazabenzo[cd]azulen-7-yl)prop-2-en-1-one] | > 3000 | 1 to 100
14 | < 0.0015 | 0.0015 to 0.005 | C=CC(=O)N1CCc2nn(-c3ccc(C4CCC4)cc3O)c3c2C(C1)N(C(=O)c1ccc(Br)c2[nH]c(CO)nc12)CC3 (stereo not shown) [Compound 75, 1-(5-(7-bromo-2-(hydroxymethyl)-1H-benzo[d]imidazole-4-carbonyl)-2-(4-cyclobutyl-2-hydroxyphenyl)-2,3,4,5,5a,6,8,9-octahydro-7H-1,2,5,7-tetraazabenzo[cd]azulen-7-yl)prop-2-en-1-one] | > 3000 | 1 to 100
15 | 0.0015 to 0.005 | 0.015 to 0.055 | C=CC(=O)N1CCc2nn(-c3ccc(C(C)C)cc3)c3c2C(C1)N(C(=O)c1cnc(C(F)(F)F)c(O)c1)CC3 (stereo not shown) [Compound 14, 1-(5-(5-hydroxy-6-(trifluoromethyl)nicotinoyl)-2-(4-isopropylphenyl)-2,3,4,5,5a,6,8,9-octahydro-7H-1,2,5,7-tetraazabenzo[cd]azulen-7-yl)prop-2-en-1-one] | > 3000 | 1 to 100
16 | < 0.0015 | 0.015 to 0.055 | C=CC(=O)N1CCc2nn(-c3ccc(C4CC4)cc3O)c3c2C(C1)N(C(=O)c1cc(F)c(C(F)(F)F)nc1N)CC3 (stereo not shown) [Compound 200, 1-(5-(2-amino-5-fluoro-6-(trifluoromethyl)nicotinoyl)-2-(4-cyclopropyl-2-hydroxyphenyl)-2,3,4,5,5a,6,8,9-octahydro-7H-1,2,5,7-tetraazabenzo[cd]azulen-7-yl)prop-2-en-1-one] | > 3000 | 1 to 100
17 | 0.005 to 0.015 | > 0.055 | C=CC(=O)N1CCc2nn(-c3ccc(C4CC4)cc3)c3c2C(C1)N(C(=O)c1cnc(C(F)(F)F)c(C#N)c1)CC3 (stereo not shown) [Compound 112, 5-(7-acryloyl-2-(4-cyclopropylphenyl)-3,4,5,5a,6,7,8,9-octahydro-2H-1,2,5,7-tetraazabenzo[cd]azulene-5-carbonyl)-2-(trifluoromethyl)nicotino nitrile] | > 3000 | 100 to 250
18 | < 0.0015 | 0.005 to 0.015 | C=CC(=O)N1CCc2nn(-c3ccc(C4CC4)cc3O)c3c2C(C1)N(C(=O)c1cnc(C(F)(F)F)cc1N)CC3 (stereo not shown) [Compound 163, 1-(5-(4-amino-6-(trifluoromethyl)nicotinoyl)-2-(4-cyclopropyl-2-hydroxyphenyl)-2,3,4,5,5a,6,8,9-octahydro-7H-1,2,5,7-tetraazabenzo[cd]azulen-7-yl)prop-2-en-1-one] | > 3000 | 1 to 100
19 | < 0.0015 | 0.0015 to 0.005 | C=CC(=O)N1CCc2nn(-c3ccc(C4CCC4)cc3O)c3c2C(C1)N(C(=O)c1ccc(Br)c2[nH]ncc12)CC3 (stereo not shown) [Compound 87, 1-(5-(7-bromo-1H-indazole-4-carbonyl)-2-(4-cyclobutyl-2-hydroxyphenyl)-2,3,4,5,5a,6,8,9-octahydro-7H-1,2,5,7-tetraazabenzo[cd]azulen-7-yl)prop-2-en-1-one] | > 3000 | 1 to 100

From US20250346600A1, “TRICYCLIC DERIVATIVES AND RELATED USES” (MOMA Therapeutics, Inc., priority 2023, published 2025)
